Test results taken from publication PMC8041751, “Structural basis for an exceptionally strong preference for asparagine residue at the S2 subsite of Stenotrophomonas maltophilia dipeptidyl peptidase 7” (Scientific Reports, 2021).
Residues, ends and D or L forms follow the SMILES beside them.

What was measured:
PgDPP11 = PgDPP11 (Porphyromonas gingivalis, UniProt B2RID1); test: biochemical
Description: Figure 2 Correlation diagrams between the hydrophobicity index (H.I.) of P2-amino acid and residual DPP activities of S46 peptidases. (a) SmDPP7. The outlier dipeptides Asn-Tyr and Trp-Tyr are coloured in red and blue, respectively (see text). (b) PgDPP7. Tyr-Tyr-MCA hydrolysis of PgDPP7 was inhibited by Xaa-Tyr dipeptide. Residual activity was measured under conditions where 200 µM dipeptides and 200 µM Tyr-Tyr-MCA were added into the reaction solution. (c) DPP11 from S. maltophilia (SmDPP11). (d) PgDPP11. For DPP11s, Leu-Asp-MCA hydrolysis was inhibited by Xaa-Asp dipeptide. Residual activity was measured under conditions where 100 µM dipeptides and 100 µM Leu-Asp-MCA were added into the reaction solution. The hydrophobicity indices of the amino acids were adopted from Sereda et al., 1994 and Mohera et al. 1995[25],[26]. R is the correlation coefficient. The standard deviations were obtained from three independent experiments.
(§1) The dipeptide library was purchased from AnaSpec (Fremont, CA, US). Ile-Tyr and Arg-Tyr were synthesized by Eurofins Genomics (Tokyo, Japan). Cys-Tyr and Cys-Asp could not be purchased commercially. Different concentrations (3.13, 6.25, 12.5, 25, 50, 100, and 200 µM) of dipeptides as the inhibitor and 200 µM Tyr-Tyr-MCA (GenScript, NJ, US) as the substrate for DPP7 were added into a reaction buffer consisting of 50 mM sodium phosphate buffer pH 7.0, 5 mM EDTA and 0.005% Tween 20. For DPP11s, different concentrations (1.56, 3.13, 6.25, 12.5, 25, 50, and 100 µM) of dipeptides as the inhibitor and 100 µM Leu-Asp-MCA (Peptide Institute, Osaka, Japan) as the substrate were used. The enzyme reaction was performed at 298 K for 20 min and standard deviations were calculated from three independent experiments. Half-maximal inhibitory concentration (IC50) values were determined by fitting to a sigmoid curve (4-parameter logistic curve) using ImageJ software[35] and inhibition constants (Ki) were calculated using the Cheng-Prusoff Equation[36]. The fluorescence intensity of the released MCA was measured with the same method of determination of kinetics parameters toward dipeptidyl MCA.

SmDPP7 = test: Inhibition assay using dipeptide library, Tyr-Tyr-MCA hydrolysis; format: biochemical, Stenotrophomonas maltophilia; conditions: Xaa-Tyr as competitive inhibitor; substrate 200 µM Tyr-Tyr-MCA; pH 7.0, 298 K; Ki from IC50 by Cheng-Prusoff
Description: Figure 1 Effect of Xaa-Tyr dipeptides on the hydrolytic activity of SmDPP7 towards synthetic substrate Tyr-Tyr-MCA. Inhibition assay was performed as described in “Materials and methods”. Residual activity was measured under conditions where 200 µM Xaa-Tyr dipeptide and 200 µM Tyr-Tyr-MCA, synthetic substrate were added into the reaction solution. […] The standard deviations were obtained from three independent experiments.
as §1

wild-type SmDPP7 = test: Kinetic parameters toward dipeptidyl MCA; format: biochemical, Stenotrophomonas maltophilia; conditions: pH 7.0, 298 K
Description: (§2) Kinetic parameters were determined by fitting the experimental data to the Michaelis–Menten equation using Excel Solver (Microsoft, WA, US) by nonlinear least-squares fitting with different concentrations of glycyl-L-tyrosyl-4-methylcoumaryl-7-amide (3.91, 7.81, 15.6, 31.3, 62.5, 125, 250, and 500 µM; Gly-Tyr-MCA; GenScript, NJ, US), L-tyrosyl-L-tyrosyl-4-methylcoumaryl-7-amide (1.56, 3.13, 6.25, 12.5, 25, 50, 100, and 200 µM; Tyr-Tyr-MCA; GenScript, NJ, US), L-asparaginyl-L-tyrosyl-4-methylcoumaryl-7-amide (1.56, 3.13, 6.25, 12.5, 25, 50, 100, and 200 µM; Asn-Tyr-MCA; GenScript, NJ, US), and L-leucinyl-L-asparaginic acid-4-methylcoumaryl-7-amide (0.781, 1.56, 3.13, 6.25, 12.5, 25, 50, and 100 µM; Leu-Asp-MCA; Peptide Institute, Osaka, Japan) as a substrate. The enzyme reaction was performed in a reaction buffer consisting of 50 mM sodium phosphate buffer pH 7.0, 5 mM EDTA, and 0.005% Tween 20 at 298 K for 20 min and standard deviations were calculated from three independent experiments. […] For SmDPP7 (wild-type and mutants), concentrations of the purified enzymes were 10, 2, and 2 nM for the hydrolyses of Gly-Tyr-MCA, Tyr-Tyr-MCA, and Asn-Tyr-MCA, respectively. Concentration of purified PgDPP7 used for determining kinetic parameters of Tyr-Tyr-MCA hydrolysis was 25 nM. For SmDPP11 and PgDPP11, concentrations of the purified enzymes used for determining kinetic parameters of Leu-Asp-MCA hydrolysis were 0.5 nM and 1 nM, respectively. The fluorescence intensity of the released MCA was measured with excitation at 355 nm and emission at 460 nm using an Infinite 200 PRO microplate reader (Tecan, Switzerland).

SmDPP7 R218A mutant = test: Kinetic parameters toward dipeptidyl MCA; format: biochemical, Stenotrophomonas maltophilia; design: key: “–” means not determined due to low activity
Description: (§3) To test the roles of the residues located in the S2 subsite for P2 residue recognition by SmDPP7, we replaced the following residues with alanine and analysed the enzymatic activities of the mutant enzymes on synthetic substrates, Gly-Tyr-MCA, Tyr-Tyr-MCA, and Asn-Tyr-MCA (Table 2). The mutated residues and their estimated roles were: Lys206, Arg218, Thr220, and Phe671 for interaction with the P2 side chain.
as §2

SmDPP7 R218Q mutant = test: Kinetic parameters toward dipeptidyl MCA; format: biochemical, Stenotrophomonas maltophilia
SmDPP7 F671A mutant = test: Kinetic parameters toward dipeptidyl MCA; format: biochemical, Stenotrophomonas maltophilia
Description: as §3, §2

SmDPP7 K206A mutant = test: Kinetic parameters toward dipeptidyl MCA; format: biochemical, Stenotrophomonas maltophilia
Description: as §3, §2

SmDPP7 R218K mutant = test: Kinetic parameters toward dipeptidyl MCA; format: biochemical, Stenotrophomonas maltophilia
Description: as §3, §2

SmDPP7 T220A mutant = test: Kinetic parameters toward dipeptidyl MCA; format: biochemical, Stenotrophomonas maltophilia
Description: as §3, §2

[1] = of the amino acid; ref 25,26 (Sereda et al. and Mohera et al.); cited from earlier work

Sequence of PgDPP11 (B2RID1 22-720): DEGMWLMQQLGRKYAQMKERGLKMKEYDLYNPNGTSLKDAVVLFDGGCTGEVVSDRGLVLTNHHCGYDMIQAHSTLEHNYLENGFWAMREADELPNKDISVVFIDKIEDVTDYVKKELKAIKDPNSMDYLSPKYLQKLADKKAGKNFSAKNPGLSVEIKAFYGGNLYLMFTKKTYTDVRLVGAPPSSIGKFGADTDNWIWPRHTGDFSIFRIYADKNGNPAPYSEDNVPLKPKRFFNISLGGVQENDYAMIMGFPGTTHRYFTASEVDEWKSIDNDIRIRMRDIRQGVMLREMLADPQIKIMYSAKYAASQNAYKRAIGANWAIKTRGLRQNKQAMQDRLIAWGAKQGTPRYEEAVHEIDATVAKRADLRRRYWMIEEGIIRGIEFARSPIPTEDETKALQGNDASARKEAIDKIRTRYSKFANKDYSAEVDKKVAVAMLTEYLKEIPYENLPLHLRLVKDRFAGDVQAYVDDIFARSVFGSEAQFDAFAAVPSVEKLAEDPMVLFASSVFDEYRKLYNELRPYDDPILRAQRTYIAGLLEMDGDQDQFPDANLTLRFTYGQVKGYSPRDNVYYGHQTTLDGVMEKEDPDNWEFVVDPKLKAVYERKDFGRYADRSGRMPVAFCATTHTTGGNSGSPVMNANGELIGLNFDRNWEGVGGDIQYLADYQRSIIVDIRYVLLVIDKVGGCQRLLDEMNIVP

In the case of NCC(=O)N[C@@H](CC(=O)O)C(=O)O [Gly-Asp] (H-Gly-Asp-OH), the Ki (PgDPP11) is reported as > 5.11 µM.

N[C@@H](Cc1c[nH]c2ccccc12)C(=O)N[C@@H](CC(=O)O)C(=O)O [Trp-Asp] (H-Trp-Asp-OH) showed a Ki (PgDPP11) of 1.36 ± 0.06 µM.

Compound N[C@@H](Cc1ccccc1)C(=O)N[C@@H](CC(=O)O)C(=O)O [Phe-Asp] (H-Phe-Asp-OH) has a Ki (PgDPP11) of 5.11 ± 0.06 µM.

For His-Tyr, the Ki (SmDPP7) was > 58 µM.

In the case of “L-tyrosyl-L-tyrosyl-4-methylcoumaryl-7-amide [Tyr-Tyr-MCA]”, the Km (wild-type SmDPP7) is reported as 81.7 ± 3.4 µM, the kcat (wild-type SmDPP7) is reported as 3.83 ± 0.09 s⁻¹ and the Km (SmDPP7 R218A mutant) is reported as “–”. For the same compound, the kcat (SmDPP7 R218A mutant) was “–”, the kcat/Km (SmDPP7 R218A mutant) was “–” and the Km (SmDPP7 R218Q mutant) was 275 ± 11 µM. It also gave a kcat (SmDPP7 R218Q mutant) of 0.0403 ± 0.0004 s⁻¹, a Km (SmDPP7 F671A mutant) of 463 ± 88 µM and a kcat (SmDPP7 F671A mutant) of 1.54 ± 0.18 s⁻¹. The Km (SmDPP7 K206A mutant) was 55.8 ± 1.5 µM, the kcat (SmDPP7 K206A mutant) was 3.52 ± 0.04 s⁻¹ and the Km (SmDPP7 R218K mutant) was 251 ± 6 µM. It also gave a kcat (SmDPP7 R218K mutant) of 0.240 ± 0.003 s⁻¹, a Km (SmDPP7 T220A mutant) of 46.4 ± 2.4 µM and a kcat (SmDPP7 T220A mutant) of 1.82 ± 0.07 s⁻¹.

With “L-asparaginyl-L-tyrosyl-4-methylcoumaryl-7-amide [Asn-Tyr-MCA]” the Km (wild-type SmDPP7) was 51.3 ± 1.6 µM, the kcat (wild-type SmDPP7) was 3.67 ± 0.12 s⁻¹ and the Km (SmDPP7 R218A mutant) was “–”. The kcat (SmDPP7 R218A mutant) was “–”, the kcat/Km (SmDPP7 R218A mutant) was “–” and the Km (SmDPP7 R218Q mutant) was 390 ± 14 µM. For the same compound, the kcat (SmDPP7 R218Q mutant) was 0.198 ± 0.006 s⁻¹, the Km (SmDPP7 F671A mutant) was 17.4 ± 1.4 µM and the kcat (SmDPP7 F671A mutant) was 0.230 ± 0.012 s⁻¹. The Km (SmDPP7 K206A mutant) was 54.1 ± 2.1 µM, the kcat (SmDPP7 K206A mutant) was 3.47 ± 0.02 s⁻¹ and the Km (SmDPP7 R218K mutant) was 277 ± 6 µM. For the same compound, the kcat (SmDPP7 R218K mutant) was 0.183 ± 0.008 s⁻¹, the Km (SmDPP7 T220A mutant) was 66.6 ± 1.5 µM and the kcat (SmDPP7 T220A mutant) was 2.60 ± 0.04 s⁻¹.

In the case of CC(C)[C@H](N)C(=O)N[C@@H](CC(=O)O)C(=O)O [Val-Asp], the Ki (PgDPP11) is reported as > 5.11 µM.

In the case of CSCC[C@H](N)C(=O)O [Met], the “H.I. of P2 aa (hydrophobicity index)” value [1] is given as 74.

In the case of Ser-Tyr, the Ki (SmDPP7) is reported as > 58 µM.

For “glycyl-L-tyrosyl-4-methylcoumaryl-7-amide [Gly-Tyr-MCA]”, the Km (wild-type SmDPP7) was 183 ± 4 µM, the kcat (wild-type SmDPP7) was 0.702 ± 0.022 s⁻¹ and the Km (SmDPP7 R218A mutant) was “–”. The kcat (SmDPP7 R218A mutant) was “–”, the kcat/Km (SmDPP7 R218A mutant) was “–” and the Km (SmDPP7 R218Q mutant) was 717 ± 63 µM. It also gave a kcat (SmDPP7 R218Q mutant) of 0.0365 ± 0.0018 s⁻¹, a Km (SmDPP7 F671A mutant) of 688 ± 38 µM and a kcat (SmDPP7 F671A mutant) of 0.191 ± 0.009 s⁻¹. It also gave a Km (SmDPP7 K206A mutant) of 201 ± 10 µM, a kcat (SmDPP7 K206A mutant) of 0.751 ± 0.015 s⁻¹ and a Km (SmDPP7 R218K mutant) of 586 ± 40 µM. For the same compound, the kcat (SmDPP7 R218K mutant) was 0.0238 ± 0.0011 s⁻¹, the Km (SmDPP7 T220A mutant) was 215 ± 10 µM and the kcat (SmDPP7 T220A mutant) was 0.454 ± 0.010 s⁻¹.

In the case of NC(=O)CC[C@H](N)C(=O)N[C@@H](CC(=O)O)C(=O)O [Gln-Asp] (H-Gln-Asp-OH), the Ki (PgDPP11) is reported as > 5.11 µM.

In the case of Ala-Tyr, the Ki (SmDPP7) is reported as > 58 µM.

With N[C@@H](CC(=O)O)C(=O)N[C@@H](CC(=O)O)C(=O)O [Asp-Asp] (H-Asp-Asp-OH) the Ki (PgDPP11) was > 5.11 µM.

In the case of N[C@@H](Cc1ccc(O)cc1)C(=O)N[C@@H](CC(=O)O)C(=O)O [Tyr-Asp] (H-Tyr-Asp-OH), the Ki (PgDPP11) is reported as > 5.11 µM.

For N[C@@H](Cc1c[nH]cn1)C(=O)N[C@@H](CC(=O)O)C(=O)O [His-Asp] (H-His-Asp-OH), the Ki (PgDPP11) was > 5.11 µM.

In the case of N[C@@H](Cc1ccccc1)C(=O)O [Phe], the “H.I. of P2 aa (hydrophobicity index)” value [1] is listed as 100.

In the case of N[C@@H](CO)C(=O)N[C@@H](CC(=O)O)C(=O)O [Ser-Asp] (H-Ser-Asp-OH), the Ki (PgDPP11) is reported as > 5.11 µM.

In the case of CSCC[C@H](N)C(=O)N[C@@H](CC(=O)O)C(=O)O [Met-Asp] (H-Met-Asp-OH), the Ki (PgDPP11) is reported as > 5.11 µM.
